# Legend:
# late watergrass = test: Test Example 2: herbicidal activity, application during weed generation under submerged conditions (Table 17, symbol A); assay type: in vivo, late watergrass (Echinochloa oryzicola); conditions: AAH 320 g/ha; application during weed generation, submerged conditions
# How it was run: (§1)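 Alluvial soil in Wagner pots was flooded to 4 cm depth and sown with the three weeds together; pots were kept in a greenhouse at 25° C. to 30° C. At the one to two leaf stage, an emulsion formulation diluted in water to a set rate went onto the water surface; scored three weeks later.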
# Japanese bulrush = test: Test Example 2: herbicidal activity, application during weed generation under submerged conditions (Table 17, symbol B); assay type: in vivo, Japanese bulrush (Schoenoplectus juncoides); conditions: AAH 320 g/ha; application during weed generation, submerged conditions
# How it was run: as §1
# oval-leafed pondweed = test: Test Example 2: herbicidal activity, application during weed generation under submerged conditions (Table 17, symbol C); assay type: in vivo, oval-leafed pondweed (Monochoria vaginalis); conditions: AAH 320 g/ha; application during weed generation, submerged conditions
# How it was run: as §1
# barnyard grass [1] = test: Test Example 3: herbicidal effect by foliage application, Wagner pot (Table 18, symbol H); assay type: in vivo, barnyard grass (Echinochloa crus-galli); conditions: 320 g/ha
# How it was run: (§2)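 Plants were sown in alluvial soil held under 0.1–0.5 cm standing water and grown 14 days in a greenhouse at 25–30 °C. An emulsifiable formulation, water-diluted to the set dose, was then sprayed onto the foliage, and effects were scored three weeks later using previously defined criteria.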
# Chinese sprangletop = test: Test Example 3: herbicidal effect by foliage application, Wagner pot (Table 18, symbol D); assay type: in vivo, chinese sprangletop (Leptochloa chinensis); conditions: 320 g/ha
# How it was run: as §2
# rice flat sedge = test: Test Example 3: herbicidal effect by foliage application, Wagner pot (Table 18, symbol E); assay type: in vivo, rice flat sedge (Cyperus iria); conditions: 320 g/ha
# How it was run: as §2
# southern crabgrass [2] = test: Test Example 4: herbicidal effect by soil treatment (Table 19, symbol F); assay type: in vivo, southern crabgrass (Digitaria ciliaris); conditions: 320 g/ha
# How it was run: (§3)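 Step 1: sow seeds in sterilized diluvial soil, cover ~1.5 cm. Step 2: spray diluted emulsion onto soil surface at predetermined rate. Step 3: greenhouse, 25–30° C, three weeks. Step 4: grade effect on each plant by earlier criteria.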
# green foxtail [3] = test: Test Example 4: herbicidal effect by soil treatment (Table 19, symbol G); assay type: in vivo, green foxtail (Setaria viridis); conditions: 320 g/ha
# How it was run: as §3
# barnyard grass [4] = test: Test Example 4: herbicidal effect by soil treatment (Table 19, symbol H); assay type: in vivo, barnyard grass (Echinochloa crus-galli); conditions: 320 g/ha
# How it was run: as §3
# wild oat [5] = test: Test Example 4: herbicidal effect by soil treatment (Table 19, symbol I); assay type: in vivo, wild oat (Avena fatua); conditions: 320 g/ha
# How it was run: as §3
# blackgrass [6] = test: Test Example 4: herbicidal effect by soil treatment (Table 19, symbol J); assay type: in vivo, blackgrass (Alopecurus myosuroides); conditions: 320 g/ha
# How it was run: as §3
# Italian ryegrass [7] = test: Test Example 4: herbicidal effect by soil treatment (Table 19, symbol K); assay type: in vivo, Italian ryegrass (Lolium multiflorum); conditions: 320 g/ha
# How it was run: as §3
# windgrass [8] = test: Test Example 4: herbicidal effect by soil treatment (Table 19, symbol L); assay type: in vivo, windgrass (Apera spica-venti); conditions: 320 g/ha
# How it was run: as §3
# velvetleaf [9] = test: Test Example 4: herbicidal effect by soil treatment (Table 19, symbol M); assay type: in vivo, velvetleaf (Abutilon theophrasti); conditions: 320 g/ha
# How it was run: as §3
# redroot pigweed = test: Test Example 4: herbicidal effect by soil treatment (Table 19, symbol N); assay type: in vivo, redroot pigweed (Amaranthus retroflexus); conditions: 320 g/ha
# How it was run: as §3
# lambsquarters [10] = test: Test Example 4: herbicidal effect by soil treatment (Table 19, symbol O); assay type: in vivo, lambsquarters (Chenopodium album); conditions: 320 g/ha
# How it was run: as §3
# chickweed = test: Test Example 4: herbicidal effect by soil treatment (Table 19, symbol P); assay type: in vivo, common chickweed (Stellaria media); conditions: 320 g/ha
# How it was run: as §3
# persian speedwell [11] = test: Test Example 4: herbicidal effect by soil treatment (Table 19, symbol R); assay type: in vivo, Persian speedwell (Veronica persica); conditions: 320 g/ha
# How it was run: as §3
# southern crabgrass [12] = test: Test Example 5: herbicidal effect by foliage application, plastic box (Table 20, symbol F); assay type: in vivo, southern crabgrass (Digitaria ciliaris); conditions: foliage application, 320 g/ha, 3 weeks after application
# How it was run: (§4)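 Foliar spray test: emulsion formulation diluted in water to a set application rate, sprayed onto 14-day-old plants raised in diluvial soil at 25° C to 30° C under glass. Both herbicidal effect and crop effect rated visually three weeks later.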
# green foxtail [13] = test: Test Example 5: herbicidal effect by foliage application, plastic box (Table 20, symbol G); assay type: in vivo, green foxtail (Setaria viridis); conditions: foliage application, 320 g/ha, 3 weeks after application
# How it was run: as §4
# barnyard grass [14] = test: Test Example 5: herbicidal effect by foliage application, plastic box (Table 20, symbol H); assay type: in vivo, barnyard grass (Echinochloa crus-galli); conditions: foliage application, 320 g/ha, 3 weeks after application
# How it was run: as §4
# wild oat [15] = test: Test Example 5: herbicidal effect by foliage application, plastic box (Table 20, symbol I); assay type: in vivo, wild oat (Avena fatua); conditions: foliage application, 320 g/ha, 3 weeks after application
# How it was run: as §4
# blackgrass [16] = test: Test Example 5: herbicidal effect by foliage application, plastic box (Table 20, symbol J); assay type: in vivo, blackgrass (Alopecurus myosuroides); conditions: foliage application, 320 g/ha, 3 weeks after application
# How it was run: as §4
# Italian ryegrass [17] = test: Test Example 5: herbicidal effect by foliage application, plastic box (Table 20, symbol K); assay type: in vivo, Italian ryegrass (Lolium multiflorum); conditions: foliage application, 320 g/ha, 3 weeks after application
# How it was run: as §4
# windgrass [18] = test: Test Example 5: herbicidal effect by foliage application, plastic box (Table 20, symbol L); assay type: in vivo, windgrass (Apera spica-venti); conditions: foliage application, 320 g/ha, 3 weeks after application
# How it was run: as §4
# velvetleaf [19] = test: Test Example 5: herbicidal effect by foliage application, plastic box (Table 20, symbol M); assay type: in vivo, velvetleaf (Abutilon theophrasti); conditions: foliage application, 320 g/ha, 3 weeks after application
# How it was run: as §4
# lambsquarters [20] = test: Test Example 5: herbicidal effect by foliage application, plastic box (Table 20, symbol O); assay type: in vivo, lambsquarters (Chenopodium album); conditions: foliage application, 320 g/ha, 3 weeks after application
# How it was run: as §4
# false cleavers = test: Test Example 5: herbicidal effect by foliage application, plastic box (Table 20, symbol Q); assay type: in vivo, false cleavers (Galium spurium); conditions: foliage application, 320 g/ha, 3 weeks after application
# How it was run: as §4
# persian speedwell [21] = test: Test Example 5: herbicidal effect by foliage application, plastic box (Table 20, symbol R); assay type: in vivo, Persian speedwell (Veronica persica); conditions: foliage application, 320 g/ha, 3 weeks after application
# How it was run: as §4
structure (smiles),measurement,setting,value
CCOc1ccccc1-c1sc2ccc(F)cc2c1-c1c(O)c(C)nn(C)c1=O [2-028],"herbicidal effect rating, A: late watergrass",late watergrass,3 (Herbicidal rate of 40% or more and less than 70%)
same,"herbicidal effect rating, B: Japanese bulrush",Japanese bulrush,1 (Herbicidal rate of 5% or more and less than 20%)
same,"herbicidal effect rating, C: oval-leafed pondweed",oval-leafed pondweed,3 (Herbicidal rate of 40% or more and less than 70%)
same,"herbicidal effect on H (barnyard grass), rating 0-5",barnyard grass [1],4 (Herbicidal rate of 70% or more and less than 90%)
same,"herbicidal effect on D (Chinese sprangletop), rating 0-5",Chinese sprangletop,3 (Herbicidal rate of 40% or more and less than 70%)
same,"herbicidal effect on E (rice flat sedge), rating 0-5",rice flat sedge,5 (Herbicidal rate of 90% or more (almost completely withered))
same,"herbicidal effect rating, F: southern crabgrass",southern crabgrass [2],3 (Herbicidal rate of 40% or more and less than 70%)
same,"herbicidal effect rating, G: green foxtail",green foxtail [3],2 (Herbicidal rate of 20% or more and less than 40%)
same,"herbicidal effect rating, H: barnyard grass",barnyard grass [4],3 (Herbicidal rate of 40% or more and less than 70%)
same,"herbicidal effect rating, I: wild oat",wild oat [5],0 (Herbicidal rate of 5% or less (almost no effect))
same,"herbicidal effect rating, J: blackgrass",blackgrass [6],0 (Herbicidal rate of 5% or less (almost no effect))
same,"herbicidal effect rating, K: Italian ryegrass",Italian ryegrass [7],0 (Herbicidal rate of 5% or less (almost no effect))
same,"herbicidal effect rating, L: windgrass",windgrass [8],0 (Herbicidal rate of 5% or less (almost no effect))
same,"herbicidal effect rating, M: velvetleaf",velvetleaf [9],3 (Herbicidal rate of 40% or more and less than 70%)
same,"herbicidal effect rating, N: redroot pigweed",redroot pigweed,5 (Herbicidal rate of 90% or more (almost completely withered))
same,"herbicidal effect rating, O: lambsquarters",lambsquarters [10],3 (Herbicidal rate of 40% or more and less than 70%)
same,"herbicidal effect rating, P: chickweed",chickweed,4 (Herbicidal rate of 70% or more and less than 90%)
same,"herbicidal effect rating, R: persian speedwell",persian speedwell [11],5 (Herbicidal rate of 90% or more (almost completely withered))
same,effect on southern crabgrass (F),southern crabgrass [12],3 (Herbicidal rate of 40% or more and less than 70%)
same,effect on green foxtail (G),green foxtail [13],4 (Herbicidal rate of 70% or more and less than 90%)
same,effect on barnyard grass (H),barnyard grass [14],4 (Herbicidal rate of 70% or more and less than 90%)
same,effect on wild oat (I),wild oat [15],3 (Herbicidal rate of 40% or more and less than 70%)
same,effect on blackgrass (J),blackgrass [16],4 (Herbicidal rate of 70% or more and less than 90%)
same,effect on Italian ryegrass (K),Italian ryegrass [17],3 (Herbicidal rate of 40% or more and less than 70%)
same,effect on windgrass (L),windgrass [18],4 (Herbicidal rate of 70% or more and less than 90%)
same,effect on velvetleaf (M),velvetleaf [19],4 (Herbicidal rate of 70% or more and less than 90%)
same,effect on lambsquarters (O),lambsquarters [20],3 (Herbicidal rate of 40% or more and less than 70%)
same,effect on false cleavers (Q),false cleavers,5 (Herbicidal rate of 90% or more (almost completely withered))
same,effect on persian speedwell (R),persian speedwell [21],5 (Herbicidal rate of 90% or more (almost completely withered))
